{"source": "patent US7632662B2", "about": "“Compounds, compositions and methods for producing antioxidants from carnitine” (priority 2002, dated 2009)", "key": {"[1]": {"system": "geriatric depressed subjects", "conditions": "cited from earlier work; for day 60 HDRS: 3.0 gm/day"}, "[2]": {"system": "brain PME(s-τc) and PCr levels", "assay": "31P MRSI of brain metabolite levels in two depressed elderly subjects treated with ALCAR for 12 weeks", "type": "in vivo, human", "conditions": "for increase of prefrontal PCr levels with ALCAR treatment: prefrontal region", "excerpt": "Phosphorus magnetic resonance spectroscopic imaging (^31P MRSI) analysis of two depressed elderly subjects treated with ALCAR for 12 weeks are compared with those of six normal non-demented, non-depressed subjects.\n(§1) A twelve-week, open, clinical, ^31P MRSI study design was used to examine the possible effects of ALCAR on brain metabolism and depressive symptomatology in non-demented geriatric major depressive disorder (NDG-MDD). Two depressed, non-demented [Folstein Mini-Mental State Exam (MMSE)>24)] male subjects, were compared with six age, social-economic status, and medically matched non-demented controls (all male, mean age of 73.6±3.6 years, range 69.7-78.2 years). The two elderly depressed subjects completed baseline Structural Clinical Interview of DSM-IV (SCID) I/P version 2.0, HDRS (17 item), MMSE, UKU Side Effect Rating Scale (UKU), and Cumulative Illness Rating Scale (CIRS) to assess medical burden, baseline physical, ECG, and, laboratory tests for hematology, urine analysis, immunopathology, and blood chemistry. Follow-up visits for the depressed subjects were done every other week for 12 weeks. Efficacy (psychiatric evaluation) was assessed by changes in the HDRS which was performed at baseline and every other week for 12 weeks along with secondary measures (MMSE; CIRS; and UKU), whereas the CIRS was performed at baseline, 6, and 12 weeks. Physical examinations and EKGs were performed at baseline, 6, and 12 weeks. The baseline MR evaluation was scheduled and completed prior to the administration of ALCAR. Follow-up MR evaluations were at 6 and 12 weeks. Acetyl-L-carnitine was administered in the form of oral tablets containing 590 mg of acetyl-L-carnitine hydrochloride (500 mg acetyl-L-carnitine). The dosage regimen was fixed at three grams of acetyl-L-carnitine given two tablets three times a day for 12 weeks.\n^31P MRSI acquisition—A custom built, doubly tuned transmit/receive volume head coil was used to acquire the ^1H MRI and 2D ^31P MRSI data on a GE Signa 1.5 T whole body MR imager. First, sets of axial and sagittal scout MR images were collected. […] A self-refocused spin echo pulse sequence with an effective flip range of 60° and an echo time of 2.5 ms, was used to acquire the ^31P MRSI (360 mm field of view, 30 mm slice thickness, 8×8 phase encoding steps [45×45×30 mm^3 nominal voxel dimensions], 2 s TR, 1024 data points, 4.0 kHz spectral bandwidth and 16 NEX).\nMRSI post-processing and quantification—To optimize the right and left voxel positions for the six regions, the 8×8 ^31P grid was shifted with respect to the anatomical MRI and a mild spatial apodization (i.e., Fermi window with 90% diameter and 5% transition width) was applied prior to the inverse Fourier transform. The remaining processing steps were 100% automated. A 5 Hz exponential apodization was applied and the PME, phosphodiester (PDE), PCr, α-, γ-, and β-ATP, and inorganic orthophosphate (Pi), were modeled in the time domain with exponentially damped sinusoids and by omitting the first 2.75 ms of the free induction decay (FID) using the Marquardt-Levenberg algorithm. This approach ensured that the PME and PDE resonances primarily reflected the freely mobile, short correlation time (s-τc), water soluble PME(s-τc) and PDE(s-τc) metabolites without the influence of relatively broad underlying signals within the PME and PDE spectral region. […]"}, "brain PME levels": {"system": "brain PME levels", "assay": "In vivo 31P MRSI in two young subjects with MDD", "parameters": "species or system human", "conditions": "2 young MDD subjects; treatment with ALCAR", "excerpt": "As part of an ongoing ^31P-^1H MRSI study of never-medicated, first-episode schizophrenia subjects three ^31P MRSI spectra on 2 MDD subjects (1 person, 1 person, 24∀2.3 years) were obtained. The MDD spectral results are compared with those obtained from 13 controls (6 males; 3 white, 2 African-American, 1 Asian and 7 females; 4 white, 3 African-American; 21∀1.0 years). PME levels in the MDD subjects were increased by approximately 15% (p=0.13) while there were decreases in the levels of PDE (approx. −7%; p=0.08), PCr (approx. −5%, p=0.61), and β-ATP (approx. −3%, p=0.87) (FIG. 6). Treatment with ALCAR lowered PME levels in the MDD subjects."}, "[3]": {"system": "non-demented geriatric major depressive disorder (NDG-MDD) subjects", "assay": "Twelve-week open clinical study of ALCAR in geriatric major depressive disorder: HDRS, CIRS, side effects", "type": "in vivo, human", "conditions": "for HDRS score: oral", "excerpt": "as §1\nThe statistical analysis was done using the Statview (SAS Institute, Inc.) software package. The pearson t correlation test used to correlate between variables."}, "rat brain": {"system": "rat brain", "assay": "Effect of ALCAR on in vitro 31P MRS brain metabolite and phospholipid levels under normoxia and brief hypoxia", "type": "in vivo, Fischer 344 rats", "conditions": "for PCr levels: non-significant; for Phosphatidylserine (PtdS) levels, change: p<0.01", "experimental": "FIG. 4 is a block diagram illustrating an effect of ALCAR on in vitro ^31P MRS α-GP and PCr levels under hypoxic (30 seconds) and normoxic conditions in Fischer 344 rats.\nFIG. 5 is a block diagram illustrating an effect of ALCAR on in vitro ^31P MRS phospholipid levels under hypoxic and normoxic conditions in Fischer 344 rats.\nThe rat brain responds differentially to brief energetic stress (30 seconds of hypoxia) depending on the age of the animal. The effect of ALCAR (75 mg/kg animal weight injected intraperitoneally 1 hour before sacrificing the animal) on both normoxic rat brain and rat brain exposed to brief hypoxia (30 seconds) was investigated (FIGS. x and x). These studies were conducted on aged rats (30 months) to provide possible insights into human aged brain and MDD."}, "Aβ(1-40) peptide": {"biological_target": "T1, Aβ(1-40) peptide (Homo sapiens, UniProt P05067)", "T1 construct": "the Aβ(1-40) peptide derived from the ubiquitous protein, amyloid precursor protein", "T1 sequence (P05067 672-711 limits assumed)": "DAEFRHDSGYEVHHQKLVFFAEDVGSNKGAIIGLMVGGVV", "assay": "Acetylation of Aβ(1-40) peptide by ALCAR", "type": "biochemical"}, "[4]": {"system": "canine model of complete, global cerebral ischemia and reperfusion", "conditions": "versus vehicle-treated control animals; p=0.0037; Rosenthal et al. 1992; cited from earlier work"}}, "note": "Read-outs that look alike come from different tables or passages of the source.", "data": [{"compound": "CC(=O)O[C@H](CC(=O)[O-])C[N+](C)(C)C", "note": "[ALCAR, acetyl-L-carnitine]", "values": [{"measurement": "day 60 HDRS", "setting": "[1]; Bella et al. 1990, baseline HDRS 22, placebo day 60 = 20", "value": 11}, {"measurement": "day 60 HDRS", "setting": "[1]; Fulgente et al. 1990, baseline HDRS 25, placebo day 60 = 22", "value": 12}, {"measurement": "HDRS", "setting": "[1]; Garzya et al. 1990, 1.5 gm/day, ages 70-80 years", "value": "significant beneficial effects"}, {"measurement": "mean cortisol levels and 12 am and 4 pm cortisol levels", "setting": "[1]; Gecele et al. 1991, 2 gm/day, p<0.001, p<0.001, p<0.01", "value": "significant reduction"}, {"measurement": "HDRS", "setting": "[1]; Gecele et al. 1991, 2 gm/day, p<0.001", "value": "significant improvement"}, {"measurement": "HDRS scores", "setting": "[1]; Nasca et al. 1989, day 40 of treatment, baseline HDRS 44.9, p<0.001", "value": "significant improvement"}, {"measurement": "side effects", "setting": "[1]; Tempesta et al. 1987, 2 gm/day", "value": "no reported ALCAR side effects"}, {"measurement": "HDRS scores", "setting": "[1]; Tempesta et al. 1987, open label cross over, 2 gm/day, subjects over 70 years", "value": "highly effective"}, {"measurement": "side effects", "setting": "[1]; Villardita et al. 1983, 1.5 gm/day, 40 days", "value": "no side effects"}, {"measurement": "Hamilton Depressive Rating Scale (HDRS)", "setting": "[1]; Villardita et al. 1983, 1.5 gm/day, day 40, baseline HDRS 26.3, p<0.001", "value": "significant improvement"}, {"measurement": "tolerability", "setting": "[1]; randomized double-blind studies, even at the higher dosages (up to 3.0 gm/day)", "value": "well tolerated"}, {"measurement": "PME(s-τc) levels in the superior temporal regions", "setting": "[2]; after 12 weeks of ALCAR treatment, compared with normal subjects, p=0.05", "value": "elevated"}, {"measurement": "PCr levels in the prefrontal, basal ganglia and occipital regions", "setting": "[2]; after 12 weeks of ALCAR treatment, compared with normal subjects, p=0.001, 0.022, 0.027", "value": "elevated"}, {"measurement": "prefrontal PME(s-τc) levels", "setting": "[2]; baseline 1.5 to 2.0 SD higher than mean of controls, with ALCAR treatment", "value": "normalized"}, {"measurement": "increase of prefrontal PCr levels with ALCAR treatment", "setting": "[2]; first of the two depressed subjects (respectively)", "value": 27, "unit": "%"}, {"measurement": "increase of prefrontal PCr levels with ALCAR treatment", "setting": "[2]; second of the two depressed subjects (respectively)", "value": 31, "unit": "%"}, {"measurement": "PME levels in the MDD subjects", "setting": "brain PME levels", "value": "lowered"}, {"measurement": "Side effects from ALCAR treatment", "setting": "[3]; both depressed subjects, 12 weeks, three grams per day", "value": "mild"}, {"measurement": "laboratory exams and EKG", "setting": "[3]; either depressed subject", "value": "No clinically significant abnormalities"}, {"measurement": "Side effects from ALCAR treatment", "setting": "[3]; subject #1", "value": "dry mouth"}, {"measurement": "CIRS", "setting": "[3]; subject #1, 6 weeks, baseline 7", "value": 6}, {"measurement": "HDRS score", "setting": "[3]; subject #1, 6 weeks, baseline 15, three grams acetyl-L-carnitine per day", "value": 1}, {"measurement": "CIRS", "setting": "[3]; subject #1, 12 weeks, baseline 7", "value": 5}, {"measurement": "HDRS score", "setting": "[3]; subject #1, 12 weeks, baseline 15, three grams per day", "value": 0}, {"measurement": "Side effects from ALCAR treatment", "setting": "[3]; subject #2", "value": "slight increase in perspiration"}, {"measurement": "CIRS", "setting": "[3]; subject #2, 6 weeks, baseline 4", "value": 4}, {"measurement": "HDRS score", "setting": "[3]; subject #2, 6 weeks, baseline 20, three grams per day", "value": 17}, {"measurement": "CIRS", "setting": "[3]; subject #2, 12 weeks, baseline 4", "value": 2}, {"measurement": "HDRS score", "setting": "[3]; subject #2, 12 weeks, baseline 20, three grams per day", "value": 3}, {"measurement": "Cardiolipin levels", "setting": "rat brain; ALCAR/hypoxia", "value": "non-significantly reduced"}, {"measurement": "α-GP levels, change compared with controls", "setting": "rat brain; ALCAR/hypoxia (30 seconds), aged rats (30 months), 75 mg/kg i.p., p=0.01", "value": "approximately +80%"}, {"measurement": "PCr levels", "setting": "rat brain; ALCAR/hypoxia, p=0.07", "value": "decrease"}, {"measurement": "Phosphatidylserine (PtdS) levels, change", "setting": "rat brain; ALCAR/hypoxic", "value": "approx. −75%"}, {"measurement": "Cardiolipin levels", "setting": "rat brain; ALCAR/normoxia", "value": "unchanged"}, {"measurement": "α-GP levels", "setting": "rat brain; ALCAR/normoxia, aged rats (30 months), 75 mg/kg intraperitoneally 1 hour before sacrifice", "value": "did not alter"}, {"measurement": "PCr levels", "setting": "rat brain; ALCAR/normoxia", "value": "increase"}, {"measurement": "Phosphatidylserine (PtdS) levels, change", "setting": "rat brain; ALCAR/normoxia", "value": "approx. −50%"}, {"measurement": "acetylation of the Aβ(1-40) peptide", "setting": "Aβ(1-40) peptide", "value": "can acetylate lysine 28"}, {"measurement": "neurological deficit scores", "setting": "[4]", "value": "significantly lower"}]}]}
